Our source for the IC50 values is patent EP4553080A1, “NUCLEOSIDE DERIVATIVES AS ANTIVIRAL AGENTS AGAINST CORONAVIRUSES” (Ustav Organicke Chemie a Biochemie AV CR, v.v.i., priority 2023, dated 2025).

The term IC50 denotes the concentration at which inhibition is half-maximal.

The target in this assay is nsp14 methyltransferase from SARS-CoV-2 (Severe acute respiratory syndrome coronavirus 2, UniProt P0DTD1). Briefly: Nsp14 MTase activity inhibition in vitro (EchoMS assay). To be noted: recombinant nsp14 protein expressed in E. coli; dose-response curve. Type of assay: biochemical.

Take `Cc1noc(-c2ccccc2)c1CSC[C@H]1O[C@@H](n2cc(C#Cc3cnc4ccccc4c3)c3c(N)ncnc32)[C@H](O)[C@@H]1O` [Compound 176b, (2R,3R,4S,5S)-2-(4-Amino-5-(quinolin-3-ylethynyl)-7H-pyrrolo[2,3-d]pyrimidin-7-yl)-5-((((3-methyl-5-phenylisoxazol-4-yl)methyl)thio)methyl)tetrahydrofuran-3,4-diol]: the IC50 is 100 to 500 nM.

For the compound `Cc1noc(-c2ccccc2)c1CSC[C@H]1O[C@@H](n2cc(C#Cc3cnc4ccccc4n3)c3c(N)ncnc32)[C@H](O)[C@@H]1O` [Compound 177b, (2R,3R,4S,5S)-2-(4-Amino-5-(quinoxalin-2-ylethynyl)-7H-pyrrolo[2,3-d]pyrimidin-7-yl)-5-((((3-methyl-5-phenylisoxazol-4-yl)methyl)thio)methyl)tetrahydrofuran-3,4-diol], the IC50 lay in the range of 30 to 100 nM. Consider `Cc1noc(-c2ccccc2)c1CSC[C@H]1O[C@@H](n2cc(C#Cc3ncc[nH]3)c3c(N)ncnc32)[C@H](O)[C@@H]1O` [Compound 178b, (2R,3R,4S,5S)-2-(5-((1H-Imidazol-2-yl)ethynyl)-4-amino-7H-pyrrolo[2,3-d]pyrimidin-7-yl)-5-((((3-methyl-5-phenylisoxazol-4-yl)methyl)thio)methyl)tetrahydrofuran-3,4-diol], for which the IC50 lay within 30 to 100 nM. For the compound `Cc1noc(-c2ccccc2)c1CSC[C@H]1O[C@@H](n2cc(C#Cc3nc4ccccc4[nH]3)c3c(N)ncnc32)[C@H](O)[C@@H]1O` [Compound 179b, (2R,3R,4S,5S)-2-(5-((1H-Benzo[d]imidazol-2-yl)ethynyl)-4-amino-7H-pyrrolo[2,3-d]pyrimidin-7-yl)-5-((((3-methyl-5-phenylisoxazol-4-yl)methyl)thio)methyl)tetrahydrofiiran-3,4-diol], the IC50 was in the range of 100 to 500 nM.

Turning to `Cc1noc(-c2ccccc2)c1CSC[C@H]1O[C@@H](n2cc(C#Cc3ccccc3)c3c(N)ncnc32)[C@H](O)[C@@H]1O` [Compound 180, (2R,3R,4S,5S)-2-(4-Amino-5-(phenylethynyl)-7H-pyrrolo[2,3-d]pyrimidin-7-yl)-5-((((3-methyl-5-phenylisoxazol-4-yl)methyl)thio)methyl)tetrahydrofuran-3,4-diol], the IC50 was in the range of 30 to 100 nM. Regarding `Cc1noc(-c2ccccc2)c1CSC[C@H]1O[C@@H](n2cc(/C=C/c3ccccc3)c3c(N)ncnc32)[C@H](O)[C@@H]1O` [Compound 181b, (2R,3R,4S,5S)-2-(4-Amino-5-((E)-styryl)-7H-pyrrolo[2,3-d]pyrimidin-7-yl)-5-((((3-methyl-5-phenylisoxazol-4-yl)methyl)thio)methyl)tetrahydrofuran-3,4-diol], the IC50 fell in the range of 100 to 500 nM.

With `COc1ccc(/C=C/c2cn([C@@H]3O[C@H](CSCc4c(C)noc4-c4ccccc4)[C@@H](O)[C@H]3O)c3ncnc(N)c23)cc1` [Compound 182b, (2R,3R,4S,5S)-2-(4-Amino-5-((E)-4-methoxystyryl)-7H-pyrrolo[2,3-d]pyrimidin-7-yl)-5-((((3-methyl-5-phenylisoxazol-4-yl)methyl)thio)methyl)tetrahydrofuran-3,4-diol], the IC50 was in the range of 30 to 100 nM. On to `Cc1noc(-c2ccccc2)c1CSC[C@H]1O[C@@H](n2cc(CCc3cncnc3)c3c(N)ncnc32)[C@H](O)[C@@H]1O` [Compound 183, (2R,3R,4S,5S)-2-(4-Amino-5-(2-(pyrimidin-5-yl)ethyl)-7H-pyrrolo[2,3-d]pyrimidin-7-yl)-5-((((3-methyl-5-phenylisoxazol-4-yl)methyl)thio)methyl)tetrahydrofuran-3,4-diol], for which the IC50 was 30 to 100 nM. The value for `Cc1noc(-c2ccccc2)c1CSC[C@H]1O[C@@H](n2cc(CCc3ccccc3)c3c(N)ncnc32)[C@H](O)[C@@H]1O` [Compound 184, (2R,3R,4S,5S)-2-(4-Amino-5-phenethyl-7H-pyrrolo[2,3-d]pyrimidin-7-yl)-5-((((3-methyl-5-phenylisoxazol-4-yl)methyl)thio)methyl)tetrahydrofuran-3,4-diol] was 100 to 500 nM.
